Laboratory results as given in the supplement of paper PMC10307832.

Key:
Experiment in all cases: relative viability (nuclei count vs DMSO), 5 days (fraction); higher = more cells survive
CAP-232 + Decitabine = compound: C[C@H]([C@@H](C(=O)N)NC(=O)[C@@H]1CSSC[C@@H](C(=O)N[C@H](C(=O)N[C@@H](C(=O)N[C@H](C(=O)N1)CCCCN)CC2=CNC3=CC=CC=C32)CC4=CC=C(C=C4)O)NC(=O)[C@@H](CC5=CC=CC=C5)N)O [CAP-232] + Nc1ncn([C@H]2C[C@H](O)[C@@H](CO)O2)c(=O)n1 [Decitabine] (partner 2 µM)
Procedure, shortened: (§1)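 For relative viability, nuclei counts in treated wells were divided by those in vehicle wells. Lung cancer cell lines had been pin-tool dosed in 1536-well plates the day after seeding and cultured for 5 days, then fixed and stained in one step (final 0.05% Triton X-100, 1% formaldehyde, 1 ug/ml Hoechst) and imaged at 4×. Doses were one drug alone or a fixed anchor-drug dose plus five library-drug doses (not always all listed) in √10 steps, and values are duplicate-plate medians.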

CAP-232 + Navitoclax = compound: C[C@H]([C@@H](C(=O)N)NC(=O)[C@@H]1CSSC[C@@H](C(=O)N[C@H](C(=O)N[C@@H](C(=O)N[C@H](C(=O)N1)CCCCN)CC2=CNC3=CC=CC=C32)CC4=CC=C(C=C4)O)NC(=O)[C@@H](CC5=CC=CC=C5)N)O [CAP-232] + CC1(C)CCC(c2ccc(Cl)cc2)=C(CN2CCN(c3ccc(C(=O)NS(=O)(=O)c4ccc(N[C@H](CCN5CCOCC5)CSc5ccccc5)c(S(=O)(=O)C(F)(F)F)c4)cc3)CC2)C1 [Navitoclax] (partner 0.5 µM)
Procedure, shortened: as §1

CAP-232 + Olaparib = compound: C[C@H]([C@@H](C(=O)N)NC(=O)[C@@H]1CSSC[C@@H](C(=O)N[C@H](C(=O)N[C@@H](C(=O)N[C@H](C(=O)N1)CCCCN)CC2=CNC3=CC=CC=C32)CC4=CC=C(C=C4)O)NC(=O)[C@@H](CC5=CC=CC=C5)N)O [CAP-232] + O=C(c1cc(Cc2n[nH]c(=O)c3ccccc23)ccc1F)N1CCN(C(=O)C2CC2)CC1 [Olaparib] (partner 8 µM)
Procedure, shortened: as §1

CAP-232 + Dasatinib = compound: C[C@H]([C@@H](C(=O)N)NC(=O)[C@@H]1CSSC[C@@H](C(=O)N[C@H](C(=O)N[C@@H](C(=O)N[C@H](C(=O)N1)CCCCN)CC2=CNC3=CC=CC=C32)CC4=CC=C(C=C4)O)NC(=O)[C@@H](CC5=CC=CC=C5)N)O [CAP-232] + Cc1nc(Nc2ncc(C(=O)Nc3c(C)cccc3Cl)s2)cc(N2CCN(CCO)CC2)n1 [Dasatinib] (partner 0.075 µM)
Procedure, shortened: as §1

CAP-232 + Foretinib = compound: C[C@H]([C@@H](C(=O)N)NC(=O)[C@@H]1CSSC[C@@H](C(=O)N[C@H](C(=O)N[C@@H](C(=O)N[C@H](C(=O)N1)CCCCN)CC2=CNC3=CC=CC=C32)CC4=CC=C(C=C4)O)NC(=O)[C@@H](CC5=CC=CC=C5)N)O [CAP-232] + COc1cc2c(Oc3ccc(NC(=O)C4(C(=O)Nc5ccc(F)cc5)CC4)cc3F)ccnc2cc1OCCCN1CCOCC1 [Foretinib] (partner 0.25 µM)
Procedure, shortened: as §1

Row | Cell Line | relative viability (CAP-232 + Decitabine; first compound 0.4 µM) | relative viability (CAP-232 + Decitabine; first compound 1.265 µM) | relative viability (CAP-232 + Decitabine; first compound 4 µM) | relative viability (CAP-232 + Decitabine; first compound 12.65 µM) | relative viability (CAP-232 + Navitoclax; first compound 0.4 µM) | relative viability (CAP-232 + Navitoclax; first compound 1.265 µM) | relative viability (CAP-232 + Navitoclax; first compound 4 µM) | relative viability (CAP-232 + Navitoclax; first compound 12.65 µM) | relative viability (CAP-232 + Olaparib; first compound 0.4 µM) | relative viability (CAP-232 + Olaparib; first compound 1.265 µM) | relative viability (CAP-232 + Olaparib; first compound 4 µM) | relative viability (CAP-232 + Olaparib; first compound 12.65 µM) | relative viability (CAP-232 + Dasatinib; first compound 0.4 µM) | relative viability (CAP-232 + Dasatinib; first compound 1.265 µM) | relative viability (CAP-232 + Dasatinib; first compound 4 µM) | relative viability (CAP-232 + Dasatinib; first compound 12.65 µM) | relative viability (CAP-232 + Foretinib; first compound 0.4 µM) | relative viability (CAP-232 + Foretinib; first compound 1.265 µM) | relative viability (CAP-232 + Foretinib; first compound 4 µM) | relative viability (CAP-232 + Foretinib; first compound 12.65 µM)
1 | NCI-H2126 | 0.488 | 0.612 | 0.618 | 0.614 | 0.864 | 0.804 | 0.843 | 0.851 | 0.899 | 0.866 | 0.992 | 0.914 | 0.639 | 0.585 | 0.704 | 0.571 | 1.34 | 1.33 | 1.63 | 1.11
2 | 201T | 0.842 | 0.844 | 0.817 | 0.849 | 1.23 | 1.19 | 1.12 | 1.22 | 0.892 | 0.833 | 0.871 | 0.854 | 0.536 | 0.549 | 0.614 | 0.556 | 1.17 | 1.14 | 1.03 | 0.864
3 | NCI-H1915 | 0.272 | 0.227 | 0.269 | 0.25 | 0.825 | 0.75 | 0.771 | 0.766 | 0.243 | 0.248 | 0.249 | 0.267 | 0.326 | 0.31 | 0.303 | 0.287 | 1.11 | 1.11 | 1.11 | 1.09
4 | BEN | 0.792 | 0.686 | 0.742 | 0.795 | 0.0584 | 0.0704 | 0.0685 | 0.0473 | 1.02 | 1.04 | 0.959 | 1.07 | 0.39 | 0.261 | 0.264 | 0.424 | 0.776 | 0.624 | 0.595 | 0.595
5 | NCI-H2347 | 0.648 | 0.589 | 0.555 | 0.544 | 0.834 | 0.951 | 0.718 | 0.72 | 0.651 | 0.528 | 0.606 | 0.598 | 0.28 | 0.285 | 0.342 | 0.292 | 0.804 | 0.524 | 1.11 | 1.05
6 | H3255 | 0.744 | – | 0.608 | 0.676 | 0.629 | 0.426 | 0.556 | 0.242 | 0.569 | 0.587 | 0.552 | 0.433 | 0.352 | 0.353 | 0.455 | 0.338 | 0.849 | 0.799 | 0.866 | 0.854
7 | NCI-H441 | 0.26 | 0.242 | 0.286 | 0.234 | 0.554 | 0.756 | 0.717 | 0.641 | 0.482 | 0.551 | 0.595 | 0.429 | 0.653 | 0.857 | 0.7 | 0.543 | 0.895 | 1.03 | 0.7 | 1.07
8 | NCI-H1975 | 0.399 | 0.39 | 0.406 | 0.207 | 1.24 | 1.1 | 1.28 | 0.853 | 0.825 | 0.894 | 1.04 | 0.363 | 0.513 | 0.319 | 0.468 | 0.21 | 0.931 | 0.915 | 1.06 | 0.474
9 | NCI-H647 | 0.308 | 0.372 | 0.318 | 0.297 | 1.35 | 1.27 | 1.31 | 1.09 | 0.699 | 0.7 | 0.635 | 0.373 | 0.259 | 0.155 | 0.179 | 0.125 | 1.15 | 1.06 | 1.36 | 0.749
10 | A-427 | 0.578 | 0.556 | 0.599 | 0.56 | 0.926 | 0.996 | 0.941 | 0.965 | 0.813 | 0.646 | 0.808 | 0.814 | 0.646 | 0.467 | 0.679 | 0.76 | 0.852 | 1.19 | 1.05 | 1.1
11 | LXF-289 | 0.331 | 0.36 | 0.391 | 0.343 | 0.998 | 0.956 | 0.964 | 0.959 | 1.09 | 1.07 | 1.12 | 1.08 | 0.224 | 0.194 | 0.238 | 0.21 | 0.985 | 0.965 | 1.01 | 0.995
12 | NCI-H838 | 0.408 | 0.469 | 0.479 | 0.374 | 1.21 | 1.19 | 1.28 | 0.556 | 0.883 | 0.808 | 0.836 | 0.705 | 0.364 | 0.249 | 0.403 | 0.25 | 1.23 | 1.02 | 1.11 | 0.75
13 | NCI-H1437 | 0.559 | 0.535 | 0.624 | 0.523 | 1.12 | 1.07 | 1.15 | 0.862 | 0.64 | 0.629 | 0.665 | 0.607 | 0.547 | 0.343 | 0.358 | 0.416 | 1.26 | 1.27 | 1.34 | 1.2
14 | SK-LU-1 | 0.628 | 0.622 | 0.768 | 0.469 | 0.911 | 0.998 | 1.12 | 0.863 | 0.388 | 0.44 | 0.412 | 0.408 | 0.174 | 0.176 | 0.158 | 0.17 | 0.759 | 0.937 | 0.913 | 0.652
15 | EPLC-272H | 0.348 | 0.334 | 0.344 | 0.355 | 1.37 | 1.29 | 1.17 | 0.964 | – | 0.935 | 0.761 | 0.31 | 0.402 | 0.306 | 0.321 | 0.386 | 0.661 | 0.644 | 0.659 | 0.71
16 | NCI-H596 | 1.03 | 0.971 | 0.69 | 0.965 | 0.839 | 1 | 1.08 | 0.987 | 0.713 | 0.612 | 0.583 | 0.641 | 0.502 | 0.615 | 0.536 | 0.615 | 0.863 | 0.739 | 0.985 | 0.827
17 | NCI-H322M | 0.706 | 0.654 | 0.701 | 0.704 | 1.32 | 1.26 | 1.36 | 1.13 | 0.939 | 0.746 | 0.745 | 0.697 | 0.275 | 0.237 | 0.256 | 0.34 | 1.05 | 0.962 | 0.952 | 0.985
